Measurements as given in PMC8952364, “Polyphenols as Inhibitors of Antibiotic Resistant Bacteria—Mechanisms Underlying Rutin Interference with Bacterial Virulence” (Pharmaceuticals, 2022).
In brackets after ≈: the same amount, converted by molar mass. Where two headings read alike, the source gives them in different places.

Legend:
[1] = test system: Methicillin resistant S. aureus IBRS MRSA 011; assay: Antimicrobial microdilution assay (MIC/MBC); format: cell-based, Staphylococcus aureus; details: for MBC: subcultivation, 24 h at 37 °C, read-out: MBC
Procedure: (§1) The bacterial suspension (0.5 Mc Farland) was prepared, and twenty-fold dilutions of these suspensions were mixed in a 1:10 ratio with the corresponding polyphenol dilution (0.0039–1 mg/mL). Microtiter plates were incubated at 37 °C for 24 h. The lowest concentrations without visible growth (under a binocular microscope) were defined as MICs. The bactericidal concentrations (MBCs) were determined by serial subcultivation of 2 μL of the well’s content and further incubation for 24 h at 37 °C. Streptomycin (SigmaAldrich, Darmstadt, Germany) was used as a positive control. The polyphenols were obtained from Extrasynthese, Rhone, France (rutin, isoquercitrin) and SigmaAldrich, Germany (hesperetin, hesperidin, naringenin, naringin, taxifolin, morin, chlorogenic acid, ferulic acid, p-coumaric acid, and gallic acid). The stock compounds were prepared in ethanol (30%), and adequate ethanol concentrations were used as the negative control in the assays. Experiments were done in triplicate.

P. aeruginosa IBRS P001 = assay: Antimicrobial microdilution assay (MIC/MBC); format: cell-based, Pseudomonas aeruginosa; details: Pseudomonas aeruginosa, IBRSP001; for MIC: 37 °C, 24 h, read-out: MIC; for MBC: subcultivation, 24 h at 37 °C, read-out: MBC
Procedure: as §1

P. aeruginosa MMA83 = assay: Antimicrobial microdilution assay (MIC/MBC); format: cell-based, Pseudomonas aeruginosa; details: Pseudomonas aeruginosa, MMA83; for MIC: 37 °C, 24 h, read-out: MIC; for MBC: subcultivation, 24 h at 37 °C, read-out: MBC
Procedure: as §1

E. coli IBRS E003 = assay: Antimicrobial microdilution assay (MIC/MBC); format: cell-based, Escherichia coli; details: Escherichia coli, IBRSE003; for MIC: 37 °C, 24 h, read-out: MIC; for MBC: subcultivation, 24 h at 37 °C, read-out: MBC
Procedure: as §1

E. coli IMD989 = assay: Antimicrobial microdilution assay (MIC/MBC); format: cell-based, Escherichia coli; details: Escherichia coli, IMD989; for MIC: 37 °C, 24 h, read-out: MIC; for MBC: subcultivation, 24 h at 37 °C, read-out: MBC
Procedure: as §1

A. baumannii 6077/12 = assay: Antimicrobial microdilution assay (MIC/MBC); format: cell-based, Acinetobacter baumannii; details: Acinetobacter baumannii, 6077/12; for MIC: 37 °C, 24 h, read-out: MIC; for MBC: subcultivation, 24 h at 37 °C, read-out: MBC
Procedure: as §1

A. baumannii S2/2 = assay: Antimicrobial microdilution assay (MIC/MBC); format: cell-based, Acinetobacter baumannii; details: Acinetobacter baumannii, S2/2; for MIC: 37 °C, 24 h, read-out: MIC; for MBC: subcultivation, 24 h at 37 °C, read-out: MBC
Procedure: as §1

K. pneumoniae IT977 = assay: Antimicrobial microdilution assay (MIC/MBC); format: cell-based, Klebsiella pneumoniae; details: Klebsiella pneumoniae, IT977; for MIC: 37 °C, 24 h, read-out: MIC; for MBC: subcultivation, 24 h at 37 °C, read-out: MBC
Procedure: as §1

K. pneumoniae Ni9 = assay: Antimicrobial microdilution assay (MIC/MBC); format: cell-based, Klebsiella pneumoniae; details: Klebsiella pneumoniae, NI9; for MIC: 37 °C, 24 h, read-out: MIC; for MBC: subcultivation, 24 h at 37 °C, read-out: MBC
Procedure: as §1

A. xylosoxidans 37F = assay: Antimicrobial microdilution assay (MIC/MBC); format: cell-based, Achromobacter xylosoxidans; details: Achromobacter xylosoxidans, 37F; for MIC: 37 °C, 24 h, read-out: MIC; for MBC: subcultivation, 24 h at 37 °C, read-out: MBC
Procedure: as §1

S. infantis 1371/1 = assay: Antimicrobial microdilution assay (MIC/MBC); format: cell-based, Salmonella Infantis; details: Salmonella enterica, 1371/1; for MIC: 37 °C, 24 h, read-out: MIC; for MBC: subcultivation, 24 h at 37 °C, read-out: MBC
Procedure: as §1

HaCaT cells = assay: Cytotoxicity in HaCaT cell line (crystal violet assay); format: cell-based, human; details: Homo sapiens; HaCaT, 24 h treatment, crystal violet; read-out: IC50 (compound concentration that inhibited 50% of the cell growth)
Procedure: For determination of the polyphenols’ cytotoxic effect, a crystal violet assay was used, with modifications. The cytotoxic effect of polyphenols was analyzed on spontaneously immortalized human skin keratinocytes (HaCaT, AddexBio No. T0020001, San Diego, CA, USA) cell lines. […] Cells (1 × 10^4 cells/well) were seeded in a 96-well plate (Sarstedt, Nümbrecht, Germany) 24 h before treatment. […] Cells were incubated with the compounds for 24 h. […] After crystal violet was removed, the plates were washed in a stream of tap water and left to air-dry at room temperature for 24 h. The absorbance was measured in a microplate reader (Multiskan™ FC Microplate Photometer, Thermo Scientific™) at 590 nm. The results were expressed as IC50 value in μg/mL. The criterion used to categorize the cytotoxic activity polyphenols was as follows: […] All analyses were performed in triplicate; each replicate was also quantified three times. Data were expressed as mean standard deviation, where applicable.

MRSA T144 = test system: MRSA T144; set-up: method as in PMID 31385700; details: cited from earlier work
[2] = test system: P. aeruginosa IBRS P001 biofilm; assay: Crystal violet antibiofilm assay (biofilm formation); format: cell-based, Pseudomonas aeruginosa; details: MIC and sub-MIC, 24 h, crystal violet, Figure 1
Procedure: After incubation, each well was washed twice with sterile PBS (phosphate-buffered saline, pH 7.4) and fixed with methanol for 10 min. After removal of methanol the plate was air-dried. The biofilm was stained with 0.1% crystal violet (Bio-Merieux, Marcy l’Etoile, France) for 30 min. The plate was washed with water, air dried, and the stain was dissolved with 200 μL of 96% ethanol (Zorka, Sabac, Serbia). The absorbance was read at 620 nm on a Multiskan™ FC microplate photometer (Thermo Scientific™, Waltham, MA, USA). The results are presented as biofilm forming capacity (%) compared to control.

[3] = test system: eleven antibiotic resistant strains of bacteria; assay: Antimicrobial assay, summary over the examined strains; format: cell-based; details: antibiotic resistant strains of Table 1; read-out: lowest MIC among the examined strains
Procedure: as §1

S. aureus USA300 = test system: S. aureus USA300; set-up: method as in PMID 34295320; details: methicillin resistant strain; cited from earlier work
[4] = Staphylococcus aureus, MRSA, 37 °C, 24 h, read-out: MIC

SMILES	MIC [1, 4] [µg/mL]	MBC ([1]; Staphylococcus aureus, MRSA) [µg/mL]	MIC (P. aeruginosa IBRS P001) [µg/mL]	MBC (P. aeruginosa IBRS P001) [µg/mL]	MIC (P. aeruginosa MMA83) [µg/mL]	MBC (P. aeruginosa MMA83) [µg/mL]	MIC (E. coli IBRS E003) [µg/mL]	MBC (E. coli IBRS E003) [µg/mL]	MIC (E. coli IMD989) [µg/mL]	MBC (E. coli IMD989) [µg/mL]	MIC (A. baumannii 6077/12) [µg/mL]	MBC (A. baumannii 6077/12) [µg/mL]	MIC (A. baumannii S2/2) [µg/mL]	MBC (A. baumannii S2/2) [µg/mL]	MIC (K. pneumoniae IT977) [µg/mL]	MBC (K. pneumoniae IT977) [µg/mL]	MIC (K. pneumoniae Ni9) [µg/mL]	MBC (K. pneumoniae Ni9) [µg/mL]	MIC (A. xylosoxidans 37F) [µg/mL]	MBC (A. xylosoxidans 37F) [µg/mL]	also measured
O=c1c(O)c(-c2ccc(O)cc2O)oc2cc(O)cc(O)c12 [Morin, morin]	120 (≈ 397 µM)	250 (≈ 827 µM)	120 (≈ 397 µM)	250 (≈ 827 µM)	1000 (≈ 3310 µM)	1000 (≈ 3310 µM)	250 (≈ 827 µM)	500 (≈ 1650 µM)	> 1000	> 1000	500 (≈ 1650 µM)	500 (≈ 1650 µM)	500 (≈ 1650 µM)	500 (≈ 1650 µM)	> 1000	> 1000	500 (≈ 1650 µM)	1000 (≈ 3310 µM)	500 (≈ 1650 µM)	1000 (≈ 3310 µM)	MIC ([1]; Staphylococcus aureus, MRSA, restated in the discussion, read-out: MIC): 125 µg/mL (≈ 414 µM); MIC (S. infantis 1371/1): > 1000 µg/mL; MBC (S. infantis 1371/1): > 1000 µg/mL; IC50 (HaCaT cells): 347 ± 16 µg/mL (≈ 1150 µM); MIC (MRSA T144): 32 µg/mL (≈ 106 µM)
O=C1c2c(O)cc(O)cc2OC(c2ccc(O)c(O)c2)C1O (stereo not shown) [Taxifolin, taxifolin]	250 (≈ 822 µM)	500 (≈ 1640 µM)	250 (≈ 822 µM)	500 (≈ 1640 µM)	1000 (≈ 3290 µM)	> 1000	500 (≈ 1640 µM)	1000 (≈ 3290 µM)	1000 (≈ 3290 µM)	1000 (≈ 3290 µM)	500 (≈ 1640 µM)	1000 (≈ 3290 µM)	500 (≈ 1640 µM)	500 (≈ 1640 µM)	> 1000	> 1000	1000 (≈ 3290 µM)	1000 (≈ 3290 µM)	1000 (≈ 3290 µM)	1000 (≈ 3290 µM)	MIC ([1]; 37 °C, 24 h): 250 µg/mL (≈ 822 µM); MIC (S. infantis 1371/1): > 1000 µg/mL; MBC (S. infantis 1371/1): > 1000 µg/mL; reduction of biofilm formation (biomass), in words [2]: not significantly altered; IC50 (HaCaT cells): 495 ± 47 µg/mL (≈ 1630 µM); MIC [3]: 250 µg/mL (≈ 822 µM); MIC (S. aureus USA300): 512 µg/mL (≈ 1680 µM)
